ChEMBL document CHEMBL3885861, “Open TG-GATES”

Organism: Rattus norvegicus
Experiment: Open TG-GATES - Regimen: Single
Type: toxicity, organism-based, Sprague-Dawley
Design: regimen Single, gender Male, age 6 weeks
Conditions: in vivo, po, 30 mg/kg, route gavage, dose level Low; for APTT / Bas / Eos / Fbg / Hb / Ht / Lym / MCH / MCHC / MCV / Mono / Neu / PT / Plat / RBC / Ret / WBC: tissue Blood; for KIDNEY_L / KIDNEY_R / KIDNEY_TOTAL: tissue Kidney; for LIVER: tissue Liver; for A/G / ALP / ALT / AST / BUN / CRE / Ca / Cl / DBIL / GLC / IP / K / LDH / Na / PL / RALB / TBIL / TC / TG / TP / gamma-GTP: tissue Plasma

Nc1ccc(Cc2ccc(N)cc2)cc1
TERMINAL_BW (3 h): 209.5 g | APTT (3 h): 14.3 s | Bas (3 h): 0% | Eos (3 h): 0.6% | Fbg (3 h): 262.8 mg/dL | Hb (3 h): 13 g/dL | Ht (3 h): 38% | Lym (3 h): 74.2% | MCH (3 h): 21 pg | MCHC (3 h): 34.1% | MCV (3 h): 61.4 fL | Mono (3 h): 3.6% | Neu (3 h): 20.8% | PT (3 h): 12 s | Plat (3 h): 147.2 x10_4/uL | RBC (3 h): 619 x10_4/ul | Ret (3 h): 7.8% | WBC (3 h): 100.2 x10_2/uL | KIDNEY_L (3 h): 0.9 g | KIDNEY_R (3 h): 0.9 g | KIDNEY_TOTAL (3 h): 1.8 g | LIVER (3 h): 8.8 g | A/G (3 h): 0.8 | ALP (3 h): 1545.4 IU/L | ALT (3 h): 47.4 IU/L | AST (3 h): 81.6 IU/L | BUN (3 h): 11 mg/dL | CRE (3 h): 0.2 mg/dL | Ca (3 h): 10.9 mg/dL | Cl (3 h): 105 meq/L | DBIL (3 h): 0.022 mg/dL | GLC (3 h): 172 mg/dL | IP (3 h): 9.1 mg/dL | K (3 h): 3.8 meq/L | LDH (3 h): 65.4 IU/L | Na (3 h): 141.2 meq/L | PL (3 h): 138.6 mg/dL | RALB (3 h): 2.6 g/dL | TBIL (3 h): 0.062 mg/dL | TC (3 h): 73 mg/dL | TG (3 h): 79.4 mg/dL | TP (3 h): 5.6 g/dL | gamma-GTP (3 h): 1.4 IU/L | TERMINAL_BW (6 h): 206.3 g | APTT (6 h): 14.7 s | Bas (6 h): 0% | Eos (6 h): 0.6% | Fbg (6 h): 274.6 mg/dL | Hb (6 h): 13.2 g/dL | Ht (6 h): 38.9% | Lym (6 h): 70.8% | MCH (6 h): 21.3 pg | MCHC (6 h): 34% | MCV (6 h): 62.7 fL | Mono (6 h): 2.2% | Neu (6 h): 25.2% | PT (6 h): 11.5 s | Plat (6 h): 141.7 x10_4/uL | RBC (6 h): 621.2 x10_4/ul | Ret (6 h): 8.2% | WBC (6 h): 77.7 x10_2/uL | KIDNEY_L (6 h): 0.9 g | KIDNEY_R (6 h): 0.9 g | KIDNEY_TOTAL (6 h): 1.8 g | LIVER (6 h): 8.6 g | A/G (6 h): 0.8 | ALP (6 h): 1547 IU/L | ALT (6 h): 37.2 IU/L | AST (6 h): 74.2 IU/L | BUN (6 h): 7.4 mg/dL | CRE (6 h): 0.2 mg/dL | Ca (6 h): 10.7 mg/dL | Cl (6 h): 107.2 meq/L | DBIL (6 h): 0.022 mg/dL | GLC (6 h): 167 mg/dL | IP (6 h): 9.6 mg/dL | K (6 h): 4 meq/L | LDH (6 h): 52.4 IU/L | Na (6 h): 141.8 meq/L | PL (6 h): 146.2 mg/dL | RALB (6 h): 2.5 g/dL | TBIL (6 h): 0.074 mg/dL | TC (6 h): 81 mg/dL | TG (6 h): 61.2 mg/dL | TP (6 h): 5.6 g/dL | gamma-GTP (6 h): 1.2 IU/L | TERMINAL_BW (9 h): 205 g | APTT (9 h): 13.5 s | Bas (9 h): 0% | Eos (9 h): 0.8% | Fbg (9 h): 260 mg/dL | Hb (9 h): 12.8 g/dL | Ht (9 h): 37.2% | Lym (9 h): 74% | MCH (9 h): 21.3 pg | MCHC (9 h): 34.2% | MCV (9 h): 62.1 fL | Mono (9 h): 2.4% | Neu (9 h): 22% | PT (9 h): 11.8 s | Plat (9 h): 138.8 x10_4/uL | RBC (9 h): 600 x10_4/ul | Ret (9 h): 8.6% | WBC (9 h): 106 x10_2/uL | KIDNEY_L (9 h): 0.9 g | KIDNEY_R (9 h): 0.9 g | KIDNEY_TOTAL (9 h): 1.8 g | LIVER (9 h): 7.6 g | A/G (9 h): 0.8 | ALP (9 h): 1400.6 IU/L | ALT (9 h): 34.4 IU/L | AST (9 h): 75.4 IU/L | BUN (9 h): 8.8 mg/dL | CRE (9 h): 0.2 mg/dL | Ca (9 h): 10.5 mg/dL | Cl (9 h): 106.8 meq/L | DBIL (9 h): 0.03 mg/dL | GLC (9 h): 167.6 mg/dL | IP (9 h): 11.3 mg/dL | K (9 h): 4.1 meq/L | LDH (9 h): 53.8 IU/L | Na (9 h): 143.4 meq/L | PL (9 h): 134.6 mg/dL | RALB (9 h): 2.5 g/dL | TBIL (9 h): 0.094 mg/dL | TC (9 h): 76 mg/dL | TG (9 h): 50.2 mg/dL | TP (9 h): 5.4 g/dL | gamma-GTP (9 h): 1.6 IU/L | TERMINAL_BW (24 h): 219.9 g | APTT (24 h): 13.8 s | Bas (24 h): 0% | Eos (24 h): 1% | Fbg (24 h): 278.6 mg/dL | Hb (24 h): 13.4 g/dL | Ht (24 h): 38.6% | Lym (24 h): 72.2% | MCH (24 h): 20.9 pg | MCHC (24 h): 34.7% | MCV (24 h): 60.2 fL | Mono (24 h): 2.6% | Neu (24 h): 23.6% | PT (24 h): 11.6 s | Plat (24 h): 137.1 x10_4/uL | RBC (24 h): 640.4 x10_4/ul | Ret (24 h): 6.5% | WBC (24 h): 93 x10_2/uL | KIDNEY_L (24 h): 0.9 g | KIDNEY_R (24 h): 1 g | KIDNEY_TOTAL (24 h): 1.9 g | LIVER (24 h): 10.1 g | A/G (24 h): 0.9 | ALP (24 h): 1877.6 IU/L | ALT (24 h): 44 IU/L | AST (24 h): 82 IU/L | BUN (24 h): 14.8 mg/dL | CRE (24 h): 0.2 mg/dL | Ca (24 h): 11.1 mg/dL | Cl (24 h): 105.6 meq/L | DBIL (24 h): 0.02 mg/dL | GLC (24 h): 168.4 mg/dL | IP (24 h): 8 mg/dL | K (24 h): 4 meq/L | LDH (24 h): 53.6 IU/L | Na (24 h): 143.4 meq/L | PL (24 h): 160.2 mg/dL | RALB (24 h): 2.7 g/dL | TBIL (24 h): 0.046 mg/dL | TC (24 h): 92.8 mg/dL | TG (24 h): 91.6 mg/dL | TP (24 h): 5.7 g/dL | gamma-GTP (24 h): 1 IU/L
